Square brackets hold non-standard residues; d marks the D form. Peptide text beside a SMILES is read from it. hArg = N=C(N)NCCCC[C@H](N)C(=O)O; Ac5c = NC1(C(=O)O)CCCC1; Aib = CC(C)(N)C(=O)O
Legend:
[1] = biological target: T1, PTH receptor 1 (Mus musculus, UniProt P41593); experiment: MC3T3-E1 cAMP efficacy assay; format: cell-based, murine; settings: MC3T3-E1 cells
T1 construct: host or cells: MC3T3-E1 subclone 4
T1 sequence (P41593 27-591): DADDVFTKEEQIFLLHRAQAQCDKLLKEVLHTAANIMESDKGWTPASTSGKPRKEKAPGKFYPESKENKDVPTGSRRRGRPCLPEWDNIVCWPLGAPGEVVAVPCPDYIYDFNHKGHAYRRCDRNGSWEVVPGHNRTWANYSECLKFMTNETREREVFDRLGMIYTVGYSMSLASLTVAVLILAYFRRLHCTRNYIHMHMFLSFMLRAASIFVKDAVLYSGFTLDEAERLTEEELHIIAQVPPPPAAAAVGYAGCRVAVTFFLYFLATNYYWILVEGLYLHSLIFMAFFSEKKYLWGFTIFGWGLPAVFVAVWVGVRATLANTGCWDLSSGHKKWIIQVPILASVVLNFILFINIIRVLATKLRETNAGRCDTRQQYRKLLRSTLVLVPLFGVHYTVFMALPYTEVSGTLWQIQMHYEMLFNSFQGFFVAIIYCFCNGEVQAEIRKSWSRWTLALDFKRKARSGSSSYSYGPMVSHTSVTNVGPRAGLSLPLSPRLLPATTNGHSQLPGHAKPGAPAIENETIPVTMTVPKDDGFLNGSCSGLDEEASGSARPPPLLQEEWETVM
Description: MC3T3-E1 cells were seeded at 10,000 cells/well in 96-microtiter plates and grown overnight before the efficacy assays. On the day of analysis the growth medium was carefully removed by suction. Cells were washed once with 200 μl TB/0.1% […]. The buffer was replaced with 100 μl reaction mixture (±test peptide, +100 μM IBMX) and incubated at 37° C. for 13 min. The reaction was stopped by addition of 25 μl of ice-cold 0.5 M HCl. Cells were in the following incubated on ice for 60 min. 75 μl acetate-buffer were added to each well in a 96-well cAMP FlashPlate. […] FlashPlates were incubated overnight at 4° C., emptied by suction and counted in a TopCounter.
Determinations were performed in triplicates at all doses. Standards were included as single determinations, duplicates or triplicates in each experiment, preferentially on each plate.
Efficacy was evaluated in the concentration range from […].
Concentration-dependent cAMP responses were imported into GraphPad Prism vers. 4, transformed and plotted. Curves were fitted with a function for sigmoidal dose response curve non-linear fit Y=Bottom+(Top-Bottom)/(1+10̂((LogEC50-X))) where X is the logarithm of concentration and Y is the response. Y starts at Bottom and goes to Top with a sigmoid shape. pEC50 and the maximally inducible concentration of cAMP were evaluated. Overall statistical differences were analyzed using one-way ANOVA. Post-hoc comparisons were made by the use of Fisher's Least Significance Test. Results were considered significant, when p was lower than 0.05.

[2] = biological target: CYP2D6 (Homo sapiens, UniProt P10635); experiment: CYP2D6 inhibition in pooled human liver microsomes; format: in vitro ADME; set-up: Pooled human liver microsomes (HLM, final concentration 0.05 mg protein/mL); tissue BD Biosciences 452161; host or cells: pooled human liver microsomes; settings: 10 μM compound, dextrorphan formation rate
In short: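 Pooled HLM (0.05 mg/mL) in 0.1 M KPi pH 7.4 with 5 μM dextromethorphan and 10 μM test compound, preincubated 5 min at 37 °C, then started with NADPH-regenerating system for 5 min. Dextrorphan quantified by LC/MS/MS; activity expressed as % of vehicle; <70% considered significant.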

[3] = biological target: T2, Saos-2 PTH1R (Homo sapiens, UniProt Q03431); experiment: cAMP-efficacy assay in Saos-2 cells; format: cell-based
T2 construct: endogenous in cells; host or cells: Saos-2
T2 sequence (Q03431 27-593): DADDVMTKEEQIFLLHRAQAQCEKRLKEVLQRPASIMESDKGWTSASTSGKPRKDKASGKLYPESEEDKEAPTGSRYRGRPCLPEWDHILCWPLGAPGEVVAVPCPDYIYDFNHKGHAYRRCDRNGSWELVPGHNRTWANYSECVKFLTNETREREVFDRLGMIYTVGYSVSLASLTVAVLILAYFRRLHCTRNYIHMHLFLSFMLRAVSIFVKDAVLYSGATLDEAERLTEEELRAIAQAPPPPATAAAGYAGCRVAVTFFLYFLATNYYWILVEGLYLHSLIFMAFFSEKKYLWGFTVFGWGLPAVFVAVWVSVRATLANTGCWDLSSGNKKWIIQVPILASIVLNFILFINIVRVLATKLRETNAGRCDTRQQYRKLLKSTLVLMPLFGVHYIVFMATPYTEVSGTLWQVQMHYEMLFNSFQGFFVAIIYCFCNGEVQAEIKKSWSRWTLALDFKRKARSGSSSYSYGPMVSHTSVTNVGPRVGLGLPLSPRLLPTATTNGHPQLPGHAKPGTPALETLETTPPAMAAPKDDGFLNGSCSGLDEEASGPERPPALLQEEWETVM
In short: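 cAMP accumulation was assayed by FlashPlate after 15 min peptide stimulation at 37 °C of Saos-2 cells in Tyrode's buffer containing 100 μM IBMX and 0.1% BSA, with the reaction stopped by ice-cold HCl. Variable-slope logistic fitting gave EC50/pEC50, Hill coefficient and Emax, with single or triplicate points.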

[4] = test system: ovariectomized rats; settings: cited from earlier work; for bone-anabolic activity: ovariectomized rats
[5] = biological target: T3, PTH1R (Homo sapiens, UniProt Q03431); settings: cited from earlier work
T3 sequence (Q03431 27-593): T2 sequence (Q03431 27-593)

Sequence of CYP2D6 (P10635 whole entry): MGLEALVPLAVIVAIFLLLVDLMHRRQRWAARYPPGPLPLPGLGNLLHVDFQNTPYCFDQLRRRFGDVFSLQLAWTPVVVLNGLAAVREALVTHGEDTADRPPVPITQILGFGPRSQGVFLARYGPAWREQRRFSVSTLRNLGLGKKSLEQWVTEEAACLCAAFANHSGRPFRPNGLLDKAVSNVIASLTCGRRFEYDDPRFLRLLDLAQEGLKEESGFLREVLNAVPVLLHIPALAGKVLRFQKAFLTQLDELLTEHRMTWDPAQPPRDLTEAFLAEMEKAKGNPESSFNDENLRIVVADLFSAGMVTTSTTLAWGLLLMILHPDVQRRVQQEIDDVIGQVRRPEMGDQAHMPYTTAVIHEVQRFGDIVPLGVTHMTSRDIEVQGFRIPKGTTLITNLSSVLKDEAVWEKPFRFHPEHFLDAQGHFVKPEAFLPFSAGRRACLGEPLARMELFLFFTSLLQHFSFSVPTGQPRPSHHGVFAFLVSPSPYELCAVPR

CC[C@H](C)[C@H](NC(=O)[C@H](CCC(=O)O)NC(=O)C(C)(C)NC(=O)[C@@H](NC(=O)C1(N)CCCC1)C(C)C)C(=O)N[C@@H](CCC(N)=O)C(=O)N[C@@H](CC(C)C)C(=O)N[C@@H](CCSC)C(=O)N[C@@H](Cc1c[nH]cn1)C(=O)N[C@@H](CCC(N)=O)C(=O)N[C@@H](CCCCNC(=N)N)C(=O)N[C@@H](C)C(=O)N[C@@H](CCCCN)C(=O)N[C@@H](Cc1c[nH]c2ccccc12)C(=O)N[C@@H](CC(C)C)C(=O)N[C@@H](CC(N)=O)C(=O)N[C@@H](CC(=O)O)C(N)=O [SEQ ID NO: 42, H-Ac5c-Val-Aib-Glu-Ile-Gln-Leu-Met-His-Gln-Har-Ala-Lys-Trp-Leu-Asn-Asp-NH2] (H-[Ac5c]V[Aib]EIQLMHQ[hArg]AKWLND-NH2)
EC50 ([1]; cAMP, 100 μM IBMX, 37° C.): 6.31 nM
Emax ± SEM [pmol/well] ([1]; maximally inducible cAMP): 5.7 ± 1.0 pmol/well
CYP2D6 activity (% of vehicle) ([2]; listed as 42): 29 % of vehicle
CYP2D6 activity (% of vehicle) ([2]; listed as SEQ ID NO:42): 29 % of vehicle
EC50 ([3]; cAMP, 100 μM IBMX, 37° C. 15 min, suffix of label = salt tested): 20.9 nM
Emax ± SEM ([3]; relative effect to the control (SEQ ID NO: 32)): 1.03 ± 0.07

PTH(1-29): truncated PTH fragment from the literature (Murrills et al. 2004) (SVSEIQLMHNLGKHLNSMERVEWLRKKLQ; Parathyroid hormone; UniProt P01270 32-60, looked up, fragment)
bone-anabolic activity, fold less potent than PTH(1-34) ([4]; ovariectomized rat model): approximately 20 fold

[Aib^1.3, Phe^7, Nle^8, Arg^11, Ala^12, Trp^14]PTH(1-14)
bone-anabolic activity [4]: did not exhibit any bone-anabolic activity
activation of the PTH1R in vitro [5]: activated the PTH1R in vitro

[Ala^1.3, Nle^8, Gln^10, Har^11, Trp^14, Arg^19, Tyr^21]rPTH(1-21) [MPTH(1-21)]
bone-anabolic activity [4]: inactive
